Series [1] has as its system Mycobacterium tuberculosis strain EH4.0 expressing green-fluorescent protein (GFP). In words: microbe, parasite or virus in culture. The conditions noted are these: 168 h, read-out: pIC50 (converted). The series is classed as cell-based.
The next series concerns Na Ch. Kind of series: CVS panel, Na channel.
For a further series, the system named is Ca Ch. Kind of series: CVS panel, Ca channel. An excerpt: (§1) The compounds of the invention/examples may have advantages associated with in vitro potency, kill kinetics (i.e. bactericidal effect) in vitro, PK properties, food effect, safety/toxicity (including liver toxicity, coagulation, […]), metabolic stability, Ames II negativity, MNT negativity, aqueous based solubility (and ability to formulate) and/or cardiovascular effect e.g. on animals (e.g. anesthetized guinea pig). The data below that was generated/calculated may be obtained using standard methods/assays, for instance that are available in the literature or which may be performed by a supplier (e.g. Microsomal Stability Assay—Cyprotex, Mitochondrial toxicity (Glu/Gal) assay —Cyprotex, as well as literature CYP cocktail inhibition assays). In some instances, GSH was measured (reactive metabolites, glucuronidation) to observe if a dihydrodiol is observed by LCMS (fragmentation ions), which would correspond to a dihydroxylation on the core heterocycle.

In a further series the target is hERGdof (Homo sapiens, UniProt Q12809). In words: CVS panel, hERGdof. The series is classed as binding.
The subject of series [2] is Cyp-450 (cocktail, isoforms not named). Kind of series: Cocktail Cyp-450 inhibition. The class given is in vitro ADME.
Excerpt: as §1

The target in the next series is CYP3A4 (Homo sapiens, UniProt P08684). In words: Cocktail Cyp-450 inhibition, CYP3A4. The series is classed as in vitro ADME.
Series [3] can be described thus: in vitro. Conditions: human, microsomes.
Series [4] in a line: in vitro. The conditions noted are these: mouse, microsomes.
The nature of series [5]: Mitochondrial toxicity (Glu/Gal) assay. The class given is cell-based.
Excerpt: as §1

A further series is described as follows: AMES II. The class given is cell-based.
Excerpt: as §1

Another series deals with Kinase panel. In words: Kinase panel. The series is classed as biochemical.
A further series can be described thus: in vivo. The conditions noted are these: rat, po, 5 mg/kg. The procedure: Oral Bioavailability of Compound 161 in Rat
Compound 161 was administer PO in rat (5 mg/kg, PEG4000 (sol.), 0.5 w/v Methocel (susp.) and the following results were obtained for the solution and suspension.

For series [6] the following is noted: in vivo.
A short description of the next series: physchem. The conditions noted are these: thermodynamic from solid.
The nature of series [7]: in vitro. The conditions noted are these: mouse, hepatocytes.
A short description of series [8]: in vitro. The conditions noted are these: rat, hepatocytes.
Series [9] in a line: in vitro. The conditions noted are these: dog, hepatocytes.
A short description of series [10]: in vitro. Conditions: human, hepatocytes.
Series [11] is described as follows: in vitro. The conditions noted are these: human.
The nature of series [12]: in vitro. The conditions noted are these: mouse.
The subject of another series is Cyp 3A4. Kind of series: Cyp 3A4 induction. The conditions noted are these: at 1 μM.
Series [13] in a line: Bioavailability in rodents.
The nature of series [14]: Microsomal stability CLint (H). Conditions: human, microsomes.
Series [15] in a line: Microsomal stability CLint (M). The conditions noted are these: mouse, microsomes.
For the next series, the system named is M. tuberculosis H37Rv. Conditions: M. tuberculosis H37Rv inside macrophages; J. Medicinal Chemistry, 2014, 57 (12), pp 5293-5305; cited from earlier work.
[16] abbreviates: unit inferred, read-out: Cocktail Cyp-450, IC50.

In brackets after ≈: the same amount, converted by molar mass. Like-named read-outs stand apart in the source and are kept apart here. Bounds are passed on as bounds.

Sequence of hERGdof (Q12809 whole entry, canonical isoform): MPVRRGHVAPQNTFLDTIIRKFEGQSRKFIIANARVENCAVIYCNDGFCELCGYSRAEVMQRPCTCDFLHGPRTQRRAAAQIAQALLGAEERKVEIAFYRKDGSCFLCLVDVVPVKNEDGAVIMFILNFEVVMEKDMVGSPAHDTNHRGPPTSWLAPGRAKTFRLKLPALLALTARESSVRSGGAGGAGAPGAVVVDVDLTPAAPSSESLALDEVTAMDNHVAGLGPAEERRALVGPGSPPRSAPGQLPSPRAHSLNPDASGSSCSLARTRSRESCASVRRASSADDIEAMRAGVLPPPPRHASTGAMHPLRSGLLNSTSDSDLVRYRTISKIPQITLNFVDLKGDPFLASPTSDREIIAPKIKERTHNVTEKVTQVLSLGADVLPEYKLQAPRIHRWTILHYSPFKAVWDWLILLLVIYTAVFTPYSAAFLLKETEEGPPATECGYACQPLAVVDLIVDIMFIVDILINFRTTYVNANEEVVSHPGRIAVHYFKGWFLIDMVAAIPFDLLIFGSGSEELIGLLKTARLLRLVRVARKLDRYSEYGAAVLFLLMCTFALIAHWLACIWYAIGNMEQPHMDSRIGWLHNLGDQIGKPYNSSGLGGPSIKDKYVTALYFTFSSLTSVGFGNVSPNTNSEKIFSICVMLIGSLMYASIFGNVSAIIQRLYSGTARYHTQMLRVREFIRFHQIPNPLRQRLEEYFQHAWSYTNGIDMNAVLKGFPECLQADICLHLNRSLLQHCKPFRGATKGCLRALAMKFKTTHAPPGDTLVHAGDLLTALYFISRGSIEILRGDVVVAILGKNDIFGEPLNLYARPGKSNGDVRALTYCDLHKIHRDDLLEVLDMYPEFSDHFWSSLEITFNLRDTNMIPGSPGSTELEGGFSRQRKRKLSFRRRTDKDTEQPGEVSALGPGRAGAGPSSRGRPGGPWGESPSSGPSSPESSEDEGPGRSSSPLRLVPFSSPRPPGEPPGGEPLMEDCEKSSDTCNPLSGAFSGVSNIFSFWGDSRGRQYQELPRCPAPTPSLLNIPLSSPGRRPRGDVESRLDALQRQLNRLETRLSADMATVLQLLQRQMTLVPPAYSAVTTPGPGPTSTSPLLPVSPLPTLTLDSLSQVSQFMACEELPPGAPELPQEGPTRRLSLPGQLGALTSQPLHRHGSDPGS
Sequence of CYP3A4 (P08684 whole entry): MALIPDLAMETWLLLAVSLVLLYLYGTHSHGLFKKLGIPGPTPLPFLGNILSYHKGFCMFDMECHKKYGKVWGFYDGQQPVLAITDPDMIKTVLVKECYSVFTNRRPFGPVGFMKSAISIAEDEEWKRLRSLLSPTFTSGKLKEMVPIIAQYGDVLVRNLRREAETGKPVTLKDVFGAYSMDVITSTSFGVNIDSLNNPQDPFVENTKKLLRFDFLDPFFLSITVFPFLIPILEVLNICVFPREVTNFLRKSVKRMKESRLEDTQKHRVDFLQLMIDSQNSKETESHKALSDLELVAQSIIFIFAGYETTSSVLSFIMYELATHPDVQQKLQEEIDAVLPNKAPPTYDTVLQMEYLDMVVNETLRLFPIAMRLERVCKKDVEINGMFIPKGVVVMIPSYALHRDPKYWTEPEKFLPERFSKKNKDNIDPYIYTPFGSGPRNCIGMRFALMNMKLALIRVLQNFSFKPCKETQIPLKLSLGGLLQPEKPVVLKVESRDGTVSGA

As for `CCc1nc2ccc(Cl)cn2c1C(=O)NCc1ccc(N2CCN(S(C)(=O)=O)C=N2)cc1` [Compound 20], the IC50 in series [1] was 31.6 nM; in the series on Na Ch, > 10 µM; with Ca Ch, > 10 µM; on hERGdof (read-out: CVS hERGdof, IC50), > 10 µM; in series [2] (setting [16]), > 20 µM; against CYP3A4, 13.2 µM. For the same molecule, the microsomal CLint was 56.6 µL/min/mg in “in vitro [3]” and 15.9 µL/min/mg in “in vitro [4]”.

For `CCc1nc2ncc(C)cn2c1C(=O)NCc1ccc(N2CCN(S(=O)(=O)C(F)(F)F)C=N2)c(F)c1` [Compound 161], the IC50 in series [1] is 0.776 nM; with Na Ch, > 10 µM; in the series with Ca Ch, > 10 µM; at hERGdof (read-out: CVS hERGdof, IC50) it was 15.8 µM; in series [2] it was > 20 µM. For the same molecule, the “Glu/Gal assay ratio (mitotoxicity)” value in [5] is given as < 3. In “AMES II”, the “AMES II” value is on record as “negative”. Moreover, the Kinase panel result on Kinase panel is reported as “negative”. For the same molecule, the AUC0-inf in “in vivo” is 5610 ± 2747 ng·h/mL; in “in vivo” (AUC0-inf), 10900 ± 1720 ng·h/mL. This molecule also registered a Cmax in “in vivo” (Cmax) of 1230 ± 406 ng/mL. Moreover, in “in vivo” (Tmax), the Tmax came to 4 h. This molecule showed a half-life in the series “in vivo” (t1/2) of 213 ± 27 min. Also, in series [6], the “bioavailability (as shown in rodents)” value was “good bioavailaibility”. Besides, the thermodynamic solubility in the series “physchem” (fassif) is 5 µg/mL (≈ 9.48 µM); in “physchem” (fessif), 16 µg/mL (≈ 30.3 µM); in the series “physchem” (pH 2, simulated gastric fluid), 33 µg/mL (≈ 62.6 µM); in “physchem” (pH 7, aqueous buffer), < 0.02 µg/mL. Further, the hepatocyte CLint is 12 µL/min/1e6 cells in “in vitro [7]”, 19 µL/min/1e6 cells in “in vitro [8]”, 4.7 µL/min/1e6 cells in “in vitro [9]” and 6.7 µL/min/1e6 cells in the series “in vitro [10]”. The results for the fraction unbound in “in vitro [11]” and in “in vitro [12]” were 0.015 and 0.0245, respectively. Besides, in the series with Cyp 3A4, the “Cyp 3A4 induction (% control)” value worked out at 3.0 % control.

With `CCc1nc2ccc(Cl)cn2c1C(=O)NCc1ccc(N2CCN(S(=O)(=O)C(F)(F)F)C=N2)cc1` [Compound 1], the IC50 in series [1] is 7.08 nM; in the series with Na Ch, > 10 µM; in the series on Ca Ch it was > 10 µM; against hERGdof, > 10 µM; in [2] (setting [16]) it was > 20 µM. Also, the “Glu/Gal assay ratio (mitotoxicity)” value in series [5] is on record as < 3. Besides, the “bioavailability (as shown in rodents)” value in series [13] was “good bioavailaibility”. For the same molecule, the microsomal CLint in series [14] was 29.6 µL/min/mg; in [15], 21.5 µL/min/mg.

On to `CCc1nc2ccc(Cl)cn2c1C(=O)NCc1ccc(N2CCC(c3ccc(OC(F)(F)F)cc3)CC2)cc1` [Compound Q203], for which the MIC50 with M. tuberculosis H37Rv is reported as 0.28 nM (≈ 0.156 ng/mL).

What is called microsomal CLint is a measure of how fast metabolising enzymes remove a compound, apart from limits set by blood flow. Higher therefore signals rapid turnover. Usually Cmax stands for the maximum level reached in the sampled fluid or tissue. For orientation: Tmax means the time at which the peak concentration occurs. As a reminder, the half-life is the time in which the quantity being followed falls by half. Higher therefore signals slow decline. Usually thermodynamic solubility stands for solubility found after equilibrating the solid with the medium. The term hepatocyte CLint denotes the capacity of the preparation to metabolise the compound, expressed as a volume cleared per time. Broadly, the fraction unbound is free concentration divided by total concentration.

Source of the values: patent US20220340564A1, “ANTIBACTERIAL COMPOUNDS” (Janssen Sciences Ireland Unlimited Company, priority 2019, published 2022).
